Read-outs that look alike come from different tables or passages of the source. Square brackets hold non-standard residues; d marks the D form. Peptide text beside a SMILES is read from it. * marks the point of attachment. 1Nal = N[C@@H](Cc1cccc2ccccc12)C(=O)O; X2 = O=C(c1ccc2cc(F)ccc2c1)*; Octanoyl = CCCCCCCC(=O)*; Dap = NC[C@H](N)C(=O)O; Inp = O=C(O)C1CCNCC1

For experiment [1], the target named is T1, GHSR (GHS-R1a) (Homo sapiens, UniProt Q92847).
T1 construct: expressed in transfected cells; host or cells: HEK 293 cells transfected with GHS-R1a (membrane suspension)
Put plainly: biochemical. The experiment is classed as binding. The conditions noted are these: for IC50: lower limit from test at 100 µM, read-out: IC50 against GHSR. How it is done: Peptide binding affinity for the ghrelin receptor was determined using a competitive radioligand-displacement binding assay,[22] with details provided in the Supporting Information. […]
GHSR receptor binding assays. Peptide binding affinity for the ghrelin receptor was determined using a competitive radioligand-displacement binding assay.1 Assays were performed using GHS-R1a transfected HEK 293 cells as the receptor source and human His[125I]-ghrelin(1−28) (PerkinElmer Inc. NEX388010UC ) as the radioligand. Human ghrelin(1−28) was used as a reference to ensure the validity of the results. A suspension of membrane from HEK 293/GHS-R1a cells (100,000 cells per assay tube) were incubated with ghrelin(1−8) peptide analogues (at […]
ghrelin (15 pM per assay tube) in binding buffer (25 mM HEPES, 5 mM magnesium chloride, 1 mM calcium chloride, 2.5 mM EDTA, and 0.4% BSA, pH 7.4). The resulting suspension was incubated for 20 min under shaking (550 rpm) at 37 °C. Unbound [ 125I]-ghrelin was removed and the amount of [ 125I]-ghrelin bound to the membranes was measured by γ counter. IC 50 values were determined by nonlinear regression analysis to fit a four-parameter dose−response curve using Prism 6 (version 6.0c). All binding assays were performed in triplicate. […]

Experiment [2] has as its target T1, GHSR (GHS-R1a). On the set-up: method as in Charron et al.[22]. The conditions noted are these: ref Charron et al.[22]; read-out: IC50 against GHSR; cited from earlier work.
Target sequence in this assay (Q92847 whole entry, species assumed): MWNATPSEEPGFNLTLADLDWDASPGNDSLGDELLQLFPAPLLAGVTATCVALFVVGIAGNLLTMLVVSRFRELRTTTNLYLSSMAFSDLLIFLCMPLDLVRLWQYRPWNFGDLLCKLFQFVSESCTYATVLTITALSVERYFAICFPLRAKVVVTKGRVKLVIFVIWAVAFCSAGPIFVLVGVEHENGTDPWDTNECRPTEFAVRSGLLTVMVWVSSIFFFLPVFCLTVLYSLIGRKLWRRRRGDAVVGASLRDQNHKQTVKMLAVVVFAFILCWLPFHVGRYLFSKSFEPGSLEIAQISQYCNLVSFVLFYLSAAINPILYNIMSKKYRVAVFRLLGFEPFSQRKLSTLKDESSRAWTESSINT
Another experiment deals with T2, hGOAT (Homo sapiens, UniProt Q96T53).
T2 construct: 3xHA (C); FLAG (C); His6 (C); made in house; host or cells: Sf9 insect cells (baculovirus), crude membrane fraction
T2 sequence (Q96T53 1-435): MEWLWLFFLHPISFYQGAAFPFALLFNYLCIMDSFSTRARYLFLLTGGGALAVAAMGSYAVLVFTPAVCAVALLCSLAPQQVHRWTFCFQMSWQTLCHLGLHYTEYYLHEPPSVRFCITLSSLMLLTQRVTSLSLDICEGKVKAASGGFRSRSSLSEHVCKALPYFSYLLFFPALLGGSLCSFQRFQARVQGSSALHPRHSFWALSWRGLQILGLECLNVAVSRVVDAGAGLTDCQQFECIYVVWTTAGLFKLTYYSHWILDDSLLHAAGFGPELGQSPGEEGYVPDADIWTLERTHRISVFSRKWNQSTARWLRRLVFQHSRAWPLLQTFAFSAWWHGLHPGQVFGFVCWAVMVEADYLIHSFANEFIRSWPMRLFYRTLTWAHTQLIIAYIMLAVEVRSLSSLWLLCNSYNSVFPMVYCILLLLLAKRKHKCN
The experiment is described as follows: hGOAT inhibition assay (octanoylation of GSSFLCAcDan by Sf9 membrane fraction expressing hGOAT, HPLC fluorescence). The experiment is classed as biochemical. The conditions noted are these: read-out: IC50 against hGOAT. The protocol: Assays were performed using previously reported protocols,[57],[58] as described in the Supporting Information. […]
hGOAT inhibition assays. Assays were performed using previously reported protocols.2-3 For each assay, membrane fraction from Sf9 cells expressing hGOAT was thawed on ice and homogenized by passage through an 18-gauge needle 10 times. Assays were performed with 50 µg of membrane protein, as determined by Bradford assay. Membrane fraction was pre-incubated with 1 µM methyl […]
arachidonyl fluorophosphonate (MAFP) and unlabeled peptide inhibitor or vehicle as indicated in 50 mM HEPES pH 7.0 for 30 minutes at room temperature prior to reaction initiation.4 All reactions were initiated by the addition of 1.5 µM GSSFLCAcDan and 300 µM octanoyl CoA.
Reactions were incubated for 30 minutes at room temperature under foil. All assays were stopped with the addition of 50 µL of 20% acetic acid in isopropanol, and solutions were clarified by protein precipitation with 16.7 µL of 20% trichloroacetic acid, followed by centrifugation (1,000 x g, 2 minutes). The supernatant was then analyzed using reverse-phase HPLC with fluorescence detection as previously described.2-3 Peak integrations for both substrate and product peaks were calculated using Chemstation for LC (Agilent Technologies). Data reported are the average of three independent determinations, with error reported as standard deviation.
For determination of IC50 values, the percent activity at each inhibitor concentration was calculated from HPLC integration data using equations 1 and 2: To determine an IC50 value for a given inhibitor, the plot of % activity versus [inhibitor] was fit to equation 3, with % activity0 denoting hGOAT activity in the presence of the vehicle alone. All reported IC50 values represent the average of a minimum of three independent trials.
(1) % activity = % peptide acylation in presence of inhibitor
% peptide acylation in absence of inhibitor
(2) % peptide octanoylation = Fluorescence of acylated peptide
Total peptide fluorescence (acylated and non-acylated)
(3) % activity = % activity * (1- [inhibitor] )

Where [3] appears, read: average of three independent trials ± one standard deviation.

For the molecule `CC(C)C[C@H](NC(=O)[C@H](Cc1ccccc1)NC(=O)[C@H](CN)NC(=O)[C@H](CO)NC(=O)CN)C(=O)N[C@@H](CO)C(=O)N1CCC[C@H]1C(=O)N[C@@H](Cc1ccc(O)cc1)C(N)=O` [ligand 1, H-GS-Dap-FLSPY-NH2] (HELM PEPTIDE1{G.S.[NC[C@H](N[*:1])C(=O)[*:2]].F.L.S.P.Y.[am]}$$$$V2.0), the concentration for half-maximal inhibition (IC50) on GHSR (GHS-R1a) [1] is at least 100000 nM.
Turning to `CCCCCCCC(=O)NC[C@H](NC(=O)[C@H](CO)NC(=O)CN)C(=O)N[C@@H](Cc1ccccc1)C(=O)N[C@@H](CC(C)C)C(=O)N[C@@H](CO)C(=O)N1CCC[C@H]1C(=O)N[C@@H](Cc1ccc(O)cc1)C(N)=O` [ligand 2, H-GS-(C8-Dap)-FLSPY-NH2] (H-GS[Dap](Octanoyl)FLSPY-NH2), the values for the IC50 at GHSR (GHS-R1a) [2] and on hGOAT (setting [3]) were 65 nM and 64 ± 21 nM, respectively.
Take `CC(C)C[C@H](NC(=O)[C@H](Cc1ccccc1)NC(=O)[C@H](CNC(=O)c1ccc2cc(F)ccc2c1)NC(=O)[C@H](CO)NC(=O)CN)C(=O)N[C@@H](CO)C(=O)N1CCC[C@H]1C(=O)N[C@@H](Cc1ccc(O)cc1)C(N)=O` [ligand 3, H-GS-(6FN-Dap)-FLSPY-NH2] (H-GS[Dap](X2)FLSPY-NH2): the IC50 is 9.9 nM on GHSR (GHS-R1a) [2] and above 100000 nM on hGOAT. Besides, at GHSR (GHS-R1a) [1] (from IC50 values of Table 1), the “selectivity for GHSR binding over GOAT” value is above 100 fold.
Regarding `CC(C)C[C@H](NC(=O)[C@H](Cc1ccccc1)NC(=O)[C@H](CN)NC(=O)[C@H](CO)NC(=O)C(C)(C)N)C(=O)N[C@@H](CO)C(=O)N1CCC[C@H]1C(=O)N[C@@H](Cc1ccc(O)cc1)C(N)=O` [ligand 4, H-Aib-S-Dap-FLSPY-NH2] (HELM PEPTIDE1{[Aib].S.[NC[C@H](N[*:1])C(=O)[*:2]].F.L.S.P.Y.[am]}$$$$V2.0), the concentration for half-maximal inhibition (IC50) on GHSR (GHS-R1a) [1] is at least 100000 nM; on hGOAT, above 100000 nM.
As for `CC(C)C[C@H](NC(=O)[C@H](Cc1ccccc1)NC(=O)[C@H](CN)NC(=O)[C@H](CO)NC(=O)C1CCNCC1)C(=O)N[C@@H](CO)C(=O)N1CCC[C@H]1C(=O)N[C@@H](Cc1ccc(O)cc1)C(N)=O` [ligand 5, H-Inp-S-Dap-FLSPY-NH2] (HELM PEPTIDE1{[O=C(C1CCNCC1)[*:2]].S.[NC[C@H](N[*:1])C(=O)[*:2]].F.L.S.P.Y.[am]}$$$$V2.0), the concentration for half-maximal inhibition (IC50) on GHSR (GHS-R1a) [1] was at least 100000 nM; at hGOAT it was above 100000 nM.
In the case of `CCCCCCCC(=O)NC[C@H](NC(=O)[C@H](CO)NC(=O)CN)C(=O)N[C@@H](Cc1ccccc1)C(=O)N[C@@H](CC(C)C)C(=O)N[C@@H](CO)C(=O)N1CCC[C@H]1C(=O)N[C@@H](CCC(=O)O)C(N)=O` [ligand 9, H-GS-(C8-Dap)-FLSPE-NH2], the figures for the half-inhibitory concentration (IC50) on GHSR (GHS-R1a) [2] and on hGOAT (setting [3]) were 200 nM and 580 ± 60 nM, respectively.
With `CCCCCCCC(=O)NC[C@H](NC(=O)[C@H](CO)NC(=O)CN)C(=O)N[C@@H](Cc1ccccc1)C(=O)N[C@@H](CC(C)C)C(=O)N[C@@H](CO)C(=O)N1CCC[C@H]1C(=O)N[C@@H](CC(N)=O)C(N)=O` [ligand 10, H-GS-(C8-Dap)-FLSPN-NH2] (H-GS[Dap](Octanoyl)FLSPN-NH2), the values for the half-maximal inhibitory concentration (IC50) on GHSR (GHS-R1a) [2] and on hGOAT (setting [3]) were 31.9 nM and 59 ± 7 nM, respectively.
On to `CCCCCCCC(=O)NC[C@H](NC(=O)[C@H](CO)NC(=O)CN)C(=O)N[C@@H](Cc1ccccc1)C(=O)N[C@@H](CC(C)C)C(=O)N[C@@H](CO)C(=O)N1CCC[C@H]1C(=O)N[C@H](C(N)=O)[C@@H](C)O` [ligand 11, H-GS-(C8-Dap)-FLSPT-NH2] (H-GS[Dap](Octanoyl)FLSPT-NH2), for which the IC50 is 3.3 nM at GHSR (GHS-R1a) [2] and 27 ± 8 nM at hGOAT (setting [3]).
Consider `CC(C)C[C@H](NC(=O)[C@H](Cc1ccc2ccccc2c1)NC(=O)[C@H](CN)NC(=O)[C@H](CO)NC(=O)CN)C(=O)N[C@@H](CO)C(=O)N1CCC[C@H]1C(=O)N[C@H](C(N)=O)[C@@H](C)O` [ligand 13, H-GS-Dap-Nal-2-LSPT-NH2] (HELM PEPTIDE1{G.S.[NC[C@H](N[*:1])C(=O)[*:2]].[O=C([C@H](Cc1ccc2ccccc2c1)N[*:1])[*:2]].L.S.P.T.[am]}$$$$V2.0), for which, on GHSR (GHS-R1a) [1], the IC50 was at least 100000 nM.
On to `CC(C)C[C@H](NC(=O)[C@H](Cc1cccc2ccccc12)NC(=O)[C@H](CNC(=O)c1ccc2cc(F)ccc2c1)NC(=O)[C@H](CO)NC(=O)C1CCNCC1)C(=O)N[C@@H](CO)C(=O)N1CCC[C@H]1C(=O)N[C@H](C(N)=O)[C@@H](C)O` [ligand 14] (H-[Inp]S[Dap](X2)[1Nal]LSPT-NH2), for which, at hGOAT, the IC50 is above 100000 nM.

By IC50 is commonly meant the concentration that inhibits the measured activity by half.

The values are drawn from paper PMC10442857, “Cellular Uptake of a Fluorescent Ligand Reveals Ghrelin O-Acyltransferase Interacts with Extracellular Peptides and Exhibits Unexpected Localization for a Secretory Pathway Enzyme” (ACS Chemical Biology, 2023).
